Laboratory results from patent US8192962B2, “Processes for detecting toxic substances” (Daikin Industries, Ltd., priority 2001, dated 2012).

Test system: Transport facilitation protein genes
Assay: DNA chip mRNA expression in yeast, transport facilitation protein genes (Table 5)
Assay type: cell-based, Saccharomyces cerevisiae S288C
Method in brief: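 Ratios compare mRNA levels in stressed and control S. cerevisiae. Each toxicant was applied for two hours to log-phase cultures at 25° C. at a sub-lethal, growth-inhibiting level; fluorescent cDNA (Cy3- or Cy5-dUTP) was hybridized to a genome-wide yeast chip for over 12 h at 65° C.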

CN(C)C(=S)SSC(=S)N(C)C [(10), Tetramethylthiuram disulfide]
The level of expressed mRNA in the presence of chemical substance/The level of expressed mRNA in the absence of chemical substance (yeast gene YGR281W): 1.4
The level of expressed mRNA in the presence of chemical substance/The level of expressed mRNA in the absence of chemical substance (yeast gene YHL035C): 4.6
The level of expressed mRNA in the presence of chemical substance/The level of expressed mRNA in the absence of chemical substance (yeast gene YHL036W): 4.4
The level of expressed mRNA in the presence of chemical substance/The level of expressed mRNA in the absence of chemical substance (yeast gene YHL040C): 11.3
The level of expressed mRNA in the presence of chemical substance/The level of expressed mRNA in the absence of chemical substance (yeast gene YHL047C): 11.9
The level of expressed mRNA in the presence of chemical substance/The level of expressed mRNA in the absence of chemical substance (yeast gene YHR026W): 0.9
The level of expressed mRNA in the presence of chemical substance/The level of expressed mRNA in the absence of chemical substance (yeast gene YHR092C): 0.9
The level of expressed mRNA in the presence of chemical substance/The level of expressed mRNA in the absence of chemical substance (yeast gene YHR094C): 1.2
The level of expressed mRNA in the presence of chemical substance/The level of expressed mRNA in the absence of chemical substance (yeast gene YHR175W): 2.0
The level of expressed mRNA in the presence of chemical substance/The level of expressed mRNA in the absence of chemical substance (yeast gene YIL006W): 1.1
The level of expressed mRNA in the presence of chemical substance/The level of expressed mRNA in the absence of chemical substance (yeast gene YIL022W): 1.3
The level of expressed mRNA in the presence of chemical substance/The level of expressed mRNA in the absence of chemical substance (yeast gene YIL056W): 1.6
The level of expressed mRNA in the presence of chemical substance/The level of expressed mRNA in the absence of chemical substance (yeast gene YIL088C): 1.7
The level of expressed mRNA in the presence of chemical substance/The level of expressed mRNA in the absence of chemical substance (yeast gene YJL034W): 1.1
The level of expressed mRNA in the presence of chemical substance/The level of expressed mRNA in the absence of chemical substance (yeast gene YJL212C): 1.3
The level of expressed mRNA in the presence of chemical substance/The level of expressed mRNA in the absence of chemical substance (yeast gene YJL219W): 2.3
The level of expressed mRNA in the presence of chemical substance/The level of expressed mRNA in the absence of chemical substance (yeast gene YJR077C): 0.7
The level of expressed mRNA in the presence of chemical substance/The level of expressed mRNA in the absence of chemical substance (yeast gene YJR106W): 1.6
The level of expressed mRNA in the presence of chemical substance/The level of expressed mRNA in the absence of chemical substance (yeast gene YJR121W): 1.3
The level of expressed mRNA in the presence of chemical substance/The level of expressed mRNA in the absence of chemical substance (yeast gene YKL016C): 1.8
The level of expressed mRNA in the presence of chemical substance/The level of expressed mRNA in the absence of chemical substance (yeast gene YKL146W): 2.8
The level of expressed mRNA in the presence of chemical substance/The level of expressed mRNA in the absence of chemical substance (yeast gene YKL188C): 2.8
The level of expressed mRNA in the presence of chemical substance/The level of expressed mRNA in the absence of chemical substance (yeast gene YKR039W): 2.0
The level of expressed mRNA in the presence of chemical substance/The level of expressed mRNA in the absence of chemical substance (yeast gene YKR067W): 2.3
The level of expressed mRNA in the presence of chemical substance/The level of expressed mRNA in the absence of chemical substance (yeast gene YLL028W): 2.3
The level of expressed mRNA in the presence of chemical substance/The level of expressed mRNA in the absence of chemical substance (yeast gene YLL055W): 14.0
The level of expressed mRNA in the presence of chemical substance/The level of expressed mRNA in the absence of chemical substance (yeast gene YLR081W): 2.2
The level of expressed mRNA in the presence of chemical substance/The level of expressed mRNA in the absence of chemical substance (yeast gene YLR295C): 1.2
The level of expressed mRNA in the presence of chemical substance/The level of expressed mRNA in the absence of chemical substance (yeast gene YLR348C): 1.3
The level of expressed mRNA in the presence of chemical substance/The level of expressed mRNA in the absence of chemical substance (yeast gene YLR378C): 0.7
The level of expressed mRNA in the presence of chemical substance/The level of expressed mRNA in the absence of chemical substance (yeast gene YMR011W): 0.7
The level of expressed mRNA in the presence of chemical substance/The level of expressed mRNA in the absence of chemical substance (yeast gene YMR058W): 1.4
The level of expressed mRNA in the presence of chemical substance/The level of expressed mRNA in the absence of chemical substance (yeast gene YMR162C): 1.0
The level of expressed mRNA in the presence of chemical substance/The level of expressed mRNA in the absence of chemical substance (yeast gene YMR203W): 1.2
The level of expressed mRNA in the presence of chemical substance/The level of expressed mRNA in the absence of chemical substance (yeast gene YNL055C): 1.0
The level of expressed mRNA in the presence of chemical substance/The level of expressed mRNA in the absence of chemical substance (yeast gene YNL259C): 2.1
The level of expressed mRNA in the presence of chemical substance/The level of expressed mRNA in the absence of chemical substance (yeast gene YNR072W): 1.8
The level of expressed mRNA in the presence of chemical substance/The level of expressed mRNA in the absence of chemical substance (yeast gene YOL119C): 7.4
The level of expressed mRNA in the presence of chemical substance/The level of expressed mRNA in the absence of chemical substance (yeast gene YOL156W): 2.1
The level of expressed mRNA in the presence of chemical substance/The level of expressed mRNA in the absence of chemical substance (yeast gene YOL163W): 6.2
The level of expressed mRNA in the presence of chemical substance/The level of expressed mRNA in the absence of chemical substance (yeast gene YOR035C): 1.7
The level of expressed mRNA in the presence of chemical substance/The level of expressed mRNA in the absence of chemical substance (yeast gene YOR130C): 1.7
The level of expressed mRNA in the presence of chemical substance/The level of expressed mRNA in the absence of chemical substance (yeast gene YOR153W): 1.2
The level of expressed mRNA in the presence of chemical substance/The level of expressed mRNA in the absence of chemical substance (yeast gene YOR270C): 0.9
The level of expressed mRNA in the presence of chemical substance/The level of expressed mRNA in the absence of chemical substance (yeast gene YOR273C): 0.5
The level of expressed mRNA in the presence of chemical substance/The level of expressed mRNA in the absence of chemical substance (yeast gene YOR316C): 2.0
The level of expressed mRNA in the presence of chemical substance/The level of expressed mRNA in the absence of chemical substance (yeast gene YOR332W): 1.1
The level of expressed mRNA in the presence of chemical substance/The level of expressed mRNA in the absence of chemical substance (yeast gene YOR348C): 0.4
The level of expressed mRNA in the presence of chemical substance/The level of expressed mRNA in the absence of chemical substance (yeast gene YPL036W): 0.3
The level of expressed mRNA in the presence of chemical substance/The level of expressed mRNA in the absence of chemical substance (yeast gene YPL134C): 0.8
The level of expressed mRNA in the presence of chemical substance/The level of expressed mRNA in the absence of chemical substance (yeast gene YPL265W): 1.2
The level of expressed mRNA in the presence of chemical substance/The level of expressed mRNA in the absence of chemical substance (yeast gene YPL271W): 1.2
The level of expressed mRNA in the presence of chemical substance/The level of expressed mRNA in the absence of chemical substance (yeast gene YPR124W): 1.5
The level of expressed mRNA in the presence of chemical substance/The level of expressed mRNA in the absence of chemical substance (yeast gene YPR192W): 1.3
The level of expressed mRNA in the presence of chemical substance/The level of expressed mRNA in the absence of chemical substance (yeast gene YPR194C): 0.6
